Data from patent publication US11141404B1, “Formulations and methods for treating acute cannabinoid overdose” (Anebulo Pharmaceuticals, Inc., priority 2020, dated 2021).

Columns and labels:
Type in all cases: in vivo
[1] = system: C57 mice; test: Reversal of THC-induced hypolocomotion in mice; settings: 30 min pre-test, THC 3 mg/kg ip 10 min pre-test
Protocol: Reversal of THC-induced hypolocomotion in mice: Six C57 mice (Charles River, Wilmington, Mass.) were administered Δ9-tetrahydrocannabinol (THC) 3 mg/kg ip, 10 min pre-test. […] In this apparatus, four qualitatively different measures of locomotor activity are automatically scored. […] The magnitude of the effect is similar to that elicited by rimonabant given at 3 mg/kg po, and given 30 min pre-test.

[2] = system: rat; test: Repeated dose (28 day) toxicity study in rat; settings: 28 day repeated dose
Protocol: (§1) Repeated dose (28 day) toxicity studies were conducted using ANEB-001 in two species, rat and primate, selected on the basis of acceptable bioavailability and comparison of metabolite profiles with those in human liver microsomes.

[3] = system: cynomolgus monkey; test: Repeat dose (28 day) toxicity study in cynomolgus monkey; settings: 28 day repeat dose, 160 mg/kg/day
Protocol: as §1

[4] = Single ascending oral dose pharmacokinetics in humans; settings: human plasma, single oral dose 1-200 mg
Protocol: Human subjects were assigned to six different dosage groups of ANEB-001. Groups assigned to receive dosages of 1 mg, 5 mg, 25 mg, 100 mg, or 200 mg had six subjects each, and the 150 mg dosage group had four subjects. ANEB-001 was administered orally to subjects in each group, and the plasma concentration of ANEB-001 in each subject was measured as a function of time after dosing (FIG. 2).

Cc1c(C(=O)NN2CCCCC2)nn(-c2ccc(Cl)cc2Cl)c1-c1ccc(Cl)cc1 [rimonabant, reference compound]
magnitude of the effect on THC-induced hypolocomotion (total active time), compared with ANEB-001 ([1]; 3 mg/kg po): similar

CC(C)(C)NC(=O)N1CC(O[C@H](c2ccc(Cl)cc2)c2ccccc2C(F)(F)F)C1 [ANEB-001, 3-[(R)-2-(trifluoromethyl)-4′-chlorobenzhydryloxy]-N-(tert-butyl)azetidine-1-carboxamide]
action of THC on the total active time parameter of locomotor measures ([1]; 30 mg/kg orally, 15 min in locomotor activity cages, FIG. 1): significantly reversed
no observed adverse effect level [2]: 75 mg/kg/day
hepatic findings ([2]; 75 mg/kg/day): hepatic changes consistent with an adaptive response
adverse effects at the highest dose tested ([2]; highest dose 75 mg/kg/day): No adverse effects were observed
adverse effects at the highest dose level studied [3]: no adverse effects were observed
Tmax [4]: 1 to 1.6 h
half-life ([4]; read-out: terminal elimination half-life): ≤ 456 h
